In patent US4820716A, “7-(1-Pyrrolidinyl)-quinolonecarboxylic acid derivatives” (Bayer Aktiengesellschaft, priority 1986, dated 1989):
Values after ≈ are worked out from the molar mass of the structure shown. Where two headings read alike, the source gives them in different places.

Legend:
Assay in all cases: MIC, agar dilution test (multipoint inoculator)
Format in all cases: cell-based
E. coli = conditions: Escherichia coli, Isosensitest medium pH 7.2
From the text: (§1) *Agar dilution test (multipoint inoculator) Isosensitest medium pH 7.2

Klebsiella pneum. = test system: Klebsiella pneum.
From the text: as §1

Proteus mir. = conditions: Isosensitest medium pH 7.2
From the text: as §1

Proteus morg. = conditions: Isosensitest medium pH 7.2
From the text: as §1

Proteus vulg. = test system: Proteus vulg.
From the text: as §1

Providencia stuartei = test system: Providencia stuartei
From the text: as §1

Psdm. aeruginosa = conditions: Pseudomonas aeruginosa, Isosensitest medium pH 7.2
From the text: as §1

Serratia marc. = conditions: strain 16040, Isosensitest medium pH 7.2
From the text: as §1

Staph. aureus = conditions: Staphylococcus aureus, Isosensitest medium pH 7.2
From the text: as §1

Strepto. faecalis = conditions: Isosensitest medium pH 7.2
From the text: as §1

[1] = pH 7.2, strain 455/7, read-out: MIC
[2] = pH 7.2, strain Neumann, read-out: MIC
[3] = pH 7.2, strain 57USA, Isosensitest medium pH 7.2, read-out: MIC
[4] = pH 7.2, strain 63, Isosensitest medium pH 7.2, read-out: MIC
[5] = pH 7.2, strain 6179, Isosensitest medium pH 7.2, read-out: MIC
[6] = pH 7.2, strain 6318, Isosensitest medium pH 7.2, read-out: MIC
[7] = pH 7.2, strain 8085, Isosensitest medium pH 7.2, read-out: MIC
[8] = pH 7.2, strain 8175, read-out: MIC
[9] = pH 7.2, strain 8223, read-out: MIC
[10] = strain 1017, Isosensitest medium pH 7.2, read-out: MIC
[11] = pH 7.2, strain 12012, Isosensitest medium pH 7.2
[12] = pH 7.2, strain 12052, Isosensitest medium pH 7.2

Compound	MIC (E. coli; [1]) [µg/mL]	MIC (E. coli; pH 7.2, strain 4418) [µg/mL]	MIC (E. coli; pH 7.2, strain A261) [µg/mL]	MIC (E. coli; [2]) [µg/mL]	MIC (E. coli; pH 7.2, strain T7) [µg/mL]	MIC (Klebsiella pneum.; [3]) [µg/mL]	MIC (Klebsiella pneum.; [4]) [µg/mL]	MIC (Klebsiella pneum.; [5]) [µg/mL]	MIC (Klebsiella pneum.; [6]) [µg/mL]	MIC (Klebsiella pneum.; [7]) [µg/mL]	MIC (Providencia stuartei; [11]) [µg/mL]	MIC (Providencia stuartei; [12]) [µg/mL]	MIC (Psdm. aeruginosa; pH 7.2, strain Ellsworth) [µg/mL]	MIC (Psdm. aeruginosa; pH 7.2, strain Walter) [µg/mL]	MIC (Serratia marc.) [µg/mL]	MIC (Staph. aureus; pH 7.2, strain 133) [µg/mL]	MIC (Staph. aureus; pH 7.2, strain 1756) [µg/mL]	MIC (Staph. aureus; pH 7.2, strain FK422) [µg/mL]	MIC (Strepto. faecalis; pH 7.2, strain 9790) [µg/mL]	MIC (Strepto. faecalis; pH 7.2, strain 27101) [µg/mL]	also measured
O=C(O)c1cn(C2CC2)c2cc(N3CCC(O)C3)c(F)cc2c1=O (racemic) [Example 1, 1-cyclopropyl-6-fluoro-1,4-dihydro-7-(3-hydroxy-1-pyrrolidinyl)-4-oxo-3-quinolinecarboxylic acid]	32 (≈ 96.3 µM)	< 0.015	< 0.015	≤ 0.015	< 0.015	0.125 (≈ 0.376 µM)	< 0.015	0.125 (≈ 0.376 µM)	0.06 (≈ 0.181 µM)	≤ 0.015	≤ 0.015	32 (≈ 96.3 µM)	0.125 (≈ 0.376 µM)	1 (≈ 3.01 µM)	32 (≈ 96.3 µM)	≤ 0.015	≤ 0.015	≤ 0.015	0.125 (≈ 0.376 µM)	0.125 (≈ 0.376 µM)	MIC (Proteus mir.; [8]): 0.06 µg/mL (≈ 0.181 µM); MIC (Proteus mir.; [9]): 2 µg/mL (≈ 6.02 µM); MIC (Proteus morg.; strain 932, read-out: MIC): ≤ 0.015 µg/mL; MIC (Proteus morg.; strain 11006): ≤ 0.015 µg/mL; MIC (Proteus vulg.; [10]): ≤ 0.015 µg/mL
O=C(O)c1cn(C2CC2)c2cc(N3CCNCC3)c(F)cc2c1=O [Ciprofloxacin, 1-cyclopropyl-6-fluoro-1,4-dihydro-4-oxo-7-(1-piperazinyl)-3-quinolinecarboxylic acid, reference compound]	1 (≈ 3.02 µM)			≤ 0.015							≤ 0.015	16 (≈ 48.3 µM)	0.06 (≈ 0.181 µM)	0.5 (≈ 1.51 µM)	8 (≈ 24.1 µM)	0.25 (≈ 0.754 µM)	0.25 (≈ 0.754 µM)	0.5 (≈ 1.51 µM)	0.5 (≈ 1.51 µM)	0.25 (≈ 0.754 µM)	MIC (E. coli; pH 7.2, strain 4418, read-out: MIC): ≤ 0.015 µg/mL; MIC (E. coli; pH 7.2, strain A261, read-out: MIC): ≤ 0.015 µg/mL; MIC (E. coli; pH 7.2, strain T7, read-out: MIC): ≤ 0.015 µg/mL; MIC (Klebsiella pneum.; pH 7.2, strain 57USA, Isosensitest medium pH 7.2): ≤ 0.015 µg/mL; MIC (Klebsiella pneum.; pH 7.2, strain 63, Isosensitest medium pH 7.2): 0.03 µg/mL (≈ 0.0905 µM); MIC (Klebsiella pneum.; pH 7.2, strain 6318, Isosensitest medium pH 7.2): 0.06 µg/mL (≈ 0.181 µM); MIC (Klebsiella pneum.; pH 7.2, strain 8085, Isosensitest medium pH 7.2): ≤ 0.015 µg/mL; MIC (Proteus mir.; pH 7.2, strain 8175): 0.06 µg/mL (≈ 0.181 µM); MIC (Proteus mir.; pH 7.2, strain 8223): 4 µg/mL (≈ 12.1 µM); MIC (Proteus morg.; pH 7.2, strain 932): < 0.015 µg/mL; MIC (Proteus morg.; pH 7.2, strain 11006): ≤ 0.015 µg/mL; MIC (Proteus vulg.; pH 7.2): ≤ 0.015 µg/mL
O=C(O)c1cn(C2CC2)c2c(Cl)c(N3CCC(O)C3)c(F)cc2c1=O (centres unmarked) [Example 3, 8-chloro-1-cyclopropyl-7-fluoro-1,4-dihydro-7-(3-hydroxy-1-pyrrolidinyl)-4-oxo-3-quinolinecarboxylic acid]	0.25 (≈ 0.682 µM)	≤ 0.015	≤ 0.015	≤ 0.015	≤ 0.015	≤ 0.015	≤ 0.015	< 0.015	≤ 0.015	≤ 0.015	≤ 0.015	1 (≈ 2.73 µM)	≤ 0.015	0.25 (≈ 0.682 µM)	1 (≈ 2.73 µM)	≤ 0.015	≤ 0.015	≤ 0.015	≤ 0.015	≤ 0.015	MIC (Proteus mir.; [8]): ≤ 0.015 µg/mL; MIC (Proteus mir.; [9]): 0.06 µg/mL (≈ 0.164 µM); MIC (Proteus morg.; strain 932, read-out: MIC): ≤ 0.015 µg/mL; MIC (Proteus morg.; strain 11006): ≤ 0.015 µg/mL; MIC (Proteus vulg.; [10]): ≤ 0.015 µg/mL
